{"source": "PubChem BioAssay AID1963847", "about": "(Molecular Pharmacology Branch, DTP, NCI, 2024);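 also: spheroids exposed to compounds for one week before readout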;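 as to viability, T/C: luminescence used as stand-in measure of viable cells; 100% = DMSO vehicle control viability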", "tested_on": "415267-285-R-J2-PDC complex spheroid viability", "assay": "Anticancer human tumor 415267-285-R-J2-PDC patient-derived breast carcinoma cell line growth inhibition [POLQ]", "conditions": "for IC50: curve of first compound; for viability, T/C: stronger effect = lower value", "procedure,_shortened": "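PDC + HUVEC + MSC complex spheroids; POLQ inhibitors ± partner drugs; top conc. at/near clinical Cmax, else 10 microM (SN-38 1 microM), half-log dilutions; 37 degrees C, 5% CO2.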", "key": {"[1]": {"conditions": "second compound 0.0316 µM, first compound 0.0316 µM"}, "[2]": {"conditions": "second compound 0.0316 µM, first compound 0.1 µM"}, "[3]": {"conditions": "second compound 0.0316 µM, first compound 0.316 µM"}, "[4]": {"conditions": "second compound 0.0316 µM, first compound 1 µM"}, "[5]": {"conditions": "second compound 0.0316 µM, first compound 3.16 µM"}, "[6]": {"conditions": "second compound 0.0316 µM, first compound 10 µM"}, "[7]": {"conditions": "second compound 0.1 µM, first compound 0.0316 µM"}, "[8]": {"conditions": "second compound 0.1 µM, first compound 0.1 µM"}, "[9]": {"conditions": "second compound 0.1 µM, first compound 0.316 µM"}, "[10]": {"conditions": "second compound 0.1 µM, first compound 1 µM"}, "[11]": {"conditions": "second compound 0.1 µM, first compound 3.16 µM"}, "[12]": {"conditions": "second compound 0.1 µM, first compound 10 µM"}, "[13]": {"conditions": "second compound 0.316 µM, first compound 0.0316 µM"}, "[14]": {"conditions": "second compound 0.316 µM, first compound 0.1 µM"}, "[15]": {"conditions": "second compound 0.316 µM, first compound 0.316 µM"}, "[16]": {"conditions": "second compound 0.316 µM, first compound 1 µM"}, "[17]": {"conditions": "second compound 0.316 µM, first compound 3.16 µM"}, "[18]": {"conditions": "second compound 0.316 µM, first compound 10 µM"}, "[19]": {"conditions": "second compound 1 µM, first compound 0.0316 µM"}, "[20]": {"conditions": "second compound 1 µM, first compound 0.1 µM"}, "[21]": {"conditions": "second compound 1 µM, first compound 0.316 µM"}, "[22]": {"conditions": "second compound 1 µM, first compound 1 µM"}, "[23]": {"conditions": "second compound 1 µM, first compound 3.16 µM"}, "[24]": {"conditions": "second compound 1 µM, first compound 10 µM"}, "[25]": {"conditions": "second compound 3.16 µM, first compound 0.0316 µM"}, "[26]": {"conditions": "second compound 3.16 µM, first compound 0.1 µM"}, "[27]": {"conditions": "second compound 3.16 µM, first compound 0.316 µM"}, "[28]": {"conditions": "second compound 3.16 µM, first compound 1 µM"}, "[29]": {"conditions": "second compound 3.16 µM, first compound 3.16 µM"}, "[30]": {"conditions": "second compound 3.16 µM, first compound 10 µM"}, "[31]": {"conditions": "second compound 10 µM, first compound 0.0316 µM"}, "[32]": {"conditions": "second compound 10 µM, first compound 0.1 µM"}, "[33]": {"conditions": "second compound 10 µM, first compound 0.316 µM"}, "[34]": {"conditions": "second compound 10 µM, first compound 1 µM"}, "[35]": {"conditions": "second compound 10 µM, first compound 3.16 µM"}, "[36]": {"conditions": "second compound 10 µM, first compound 10 µM"}}, "data": [{"smiles": "C#Cc1c(F)ccc2cc(O)cc(-c3ncc4c(N5CC6CCC(C5)N6)nc(OCC56CCCN5CC(F)C6)nc4c3F)c12", "note": "(centres undefined) + Nc1ccc(C#CCN(C(=O)Cc2ncc(C(F)(F)F)cc2C(F)(F)F)c2ccc(F)cc2)nn1", "values": [{"measurement": "IC50", "setting": "second compound 0.0316 µM", "value": "> 10", "unit": "µM"}, {"measurement": "IC50", "setting": "second compound 0.1 µM", "value": "> 10", "unit": "µM"}, {"measurement": "IC50", "setting": "second compound 0.316 µM", "value": "> 10", "unit": "µM"}, {"measurement": "IC50", "setting": "second compound 1 µM", "value": "> 10", "unit": "µM"}, {"measurement": "IC50", "setting": "second compound 3.16 µM", "value": "> 10", "unit": "µM"}, {"measurement": "IC50", "setting": "second compound 10 µM", "value": "> 10", "unit": "µM"}, {"measurement": "viability, T/C", "setting": "[1]", "value": 105, "unit": "%"}, {"measurement": "viability, T/C", "setting": "[2]", "value": 110, "unit": "%"}, {"measurement": "viability, T/C", "setting": "[3]", "value": 84, "unit": "%"}, {"measurement": "viability, T/C", "setting": "[4]", "value": 101, "unit": "%"}, {"measurement": "viability, T/C", "setting": "[5]", "value": 97, "unit": "%"}, {"measurement": "viability, T/C", "setting": "[6]", "value": 99.5, "unit": "%"}, {"measurement": "viability, T/C", "setting": "[7]", "value": 100, "unit": "%"}, {"measurement": "viability, T/C", "setting": "[8]", "value": 96, "unit": "%"}, {"measurement": "viability, T/C", "setting": "[9]", "value": 94.4, "unit": "%"}, {"measurement": "viability, T/C", "setting": "[10]", "value": 98.6, "unit": "%"}, {"measurement": "viability, T/C", "setting": "[11]", "value": 97.3, "unit": "%"}, {"measurement": "viability, T/C", "setting": "[12]", "value": 92.3, "unit": "%"}, {"measurement": "viability, T/C", "setting": "[13]", "value": 114, "unit": "%"}, {"measurement": "viability, T/C", "setting": "[14]", "value": 110, "unit": "%"}, {"measurement": "viability, T/C", "setting": "[15]", "value": 113, "unit": "%"}, {"measurement": "viability, T/C", "setting": "[16]", "value": 111, "unit": "%"}, {"measurement": "viability, T/C", "setting": "[17]", "value": 98.5, "unit": "%"}, {"measurement": "viability, T/C", "setting": "[18]", "value": 102, "unit": "%"}, {"measurement": "viability, T/C", "setting": "[19]", "value": 105, "unit": "%"}, {"measurement": "viability, T/C", "setting": "[20]", "value": 102, "unit": "%"}, {"measurement": "viability, T/C", "setting": "[21]", "value": 95, "unit": "%"}, {"measurement": "viability, T/C", "setting": "[22]", "value": 112, "unit": "%"}, {"measurement": "viability, T/C", "setting": "[23]", "value": 96.1, "unit": "%"}, {"measurement": "viability, T/C", "setting": "[24]", "value": 105, "unit": "%"}, {"measurement": "viability, T/C", "setting": "[25]", "value": 113, "unit": "%"}, {"measurement": "viability, T/C", "setting": "[26]", "value": 106, "unit": "%"}, {"measurement": "viability, T/C", "setting": "[27]", "value": 105, "unit": "%"}, {"measurement": "viability, T/C", "setting": "[28]", "value": 106, "unit": "%"}, {"measurement": "viability, T/C", "setting": "[29]", "value": 115, "unit": "%"}, {"measurement": "viability, T/C", "setting": "[30]", "value": 111, "unit": "%"}, {"measurement": "viability, T/C", "setting": "[31]", "value": 97.7, "unit": "%"}, {"measurement": "viability, T/C", "setting": "[32]", "value": 103, "unit": "%"}, {"measurement": "viability, T/C", "setting": "[33]", "value": 102, "unit": "%"}, {"measurement": "viability, T/C", "setting": "[34]", "value": 96.4, "unit": "%"}, {"measurement": "viability, T/C", "setting": "[35]", "value": 102, "unit": "%"}, {"measurement": "viability, T/C", "setting": "[36]", "value": 116, "unit": "%"}]}, {"smiles": "C=CC(=O)N1CCN(c2nc(=O)n(-c3c(C)ccnc3C(C)C)c3nc(-c4c(O)cccc4F)c(F)cc23)C(C)C1", "note": "(centres undefined) + Nc1ccc(C#CCN(C(=O)Cc2ncc(C(F)(F)F)cc2C(F)(F)F)c2ccc(F)cc2)nn1", "values": [{"measurement": "IC50", "setting": "second compound 0.0316 µM", "value": "> 10", "unit": "µM"}, {"measurement": "IC50", "setting": "second compound 0.1 µM", "value": "> 10", "unit": "µM"}, {"measurement": "IC50", "setting": "second compound 0.316 µM", "value": "> 10", "unit": "µM"}, {"measurement": "IC50", "setting": "second compound 1 µM", "value": "> 10", "unit": "µM"}, {"measurement": "IC50", "setting": "second compound 3.16 µM", "value": "> 10", "unit": "µM"}, {"measurement": "IC50", "setting": "second compound 10 µM", "value": "> 10", "unit": "µM"}, {"measurement": "viability, T/C", "setting": "[1]", "value": 99.7, "unit": "%"}, {"measurement": "viability, T/C", "setting": "[2]", "value": 110, "unit": "%"}, {"measurement": "viability, T/C", "setting": "[3]", "value": 121, "unit": "%"}, {"measurement": "viability, T/C", "setting": "[4]", "value": 114, "unit": "%"}, {"measurement": "viability, T/C", "setting": "[5]", "value": 104, "unit": "%"}, {"measurement": "viability, T/C", "setting": "[6]", "value": 99.6, "unit": "%"}, {"measurement": "viability, T/C", "setting": "[7]", "value": 98.5, "unit": "%"}, {"measurement": "viability, T/C", "setting": "[8]", "value": 103, "unit": "%"}, {"measurement": "viability, T/C", "setting": "[9]", "value": 94.7, "unit": "%"}, {"measurement": "viability, T/C", "setting": "[10]", "value": 100, "unit": "%"}, {"measurement": "viability, T/C", "setting": "[11]", "value": 103, "unit": "%"}, {"measurement": "viability, T/C", "setting": "[12]", "value": 105, "unit": "%"}, {"measurement": "viability, T/C", "setting": "[13]", "value": 97.5, "unit": "%"}, {"measurement": "viability, T/C", "setting": "[14]", "value": 114, "unit": "%"}, {"measurement": "viability, T/C", "setting": "[15]", "value": 91.8, "unit": "%"}, {"measurement": "viability, T/C", "setting": "[16]", "value": 93, "unit": "%"}, {"measurement": "viability, T/C", "setting": "[17]", "value": 98.2, "unit": "%"}, {"measurement": "viability, T/C", "setting": "[18]", "value": 92.5, "unit": "%"}, {"measurement": "viability, T/C", "setting": "[19]", "value": 111, "unit": "%"}, {"measurement": "viability, T/C", "setting": "[20]", "value": 91.7, "unit": "%"}, {"measurement": "viability, T/C", "setting": "[21]", "value": 113, "unit": "%"}, {"measurement": "viability, T/C", "setting": "[22]", "value": 106, "unit": "%"}, {"measurement": "viability, T/C", "setting": "[23]", "value": 96, "unit": "%"}, {"measurement": "viability, T/C", "setting": "[24]", "value": 105, "unit": "%"}, {"measurement": "viability, T/C", "setting": "[25]", "value": 99.1, "unit": "%"}, {"measurement": "viability, T/C", "setting": "[26]", "value": 106, "unit": "%"}, {"measurement": "viability, T/C", "setting": "[27]", "value": 107, "unit": "%"}, {"measurement": "viability, T/C", "setting": "[28]", "value": 102, "unit": "%"}, {"measurement": "viability, T/C", "setting": "[29]", "value": 99.1, "unit": "%"}, {"measurement": "viability, T/C", "setting": "[30]", "value": 104, "unit": "%"}, {"measurement": "viability, T/C", "setting": "[31]", "value": 94.5, "unit": "%"}, {"measurement": "viability, T/C", "setting": "[32]", "value": 112, "unit": "%"}, {"measurement": "viability, T/C", "setting": "[33]", "value": 106, "unit": "%"}, {"measurement": "viability, T/C", "setting": "[34]", "value": 107, "unit": "%"}, {"measurement": "viability, T/C", "setting": "[35]", "value": 104, "unit": "%"}, {"measurement": "viability, T/C", "setting": "[36]", "value": 102, "unit": "%"}]}]}
